From ChEMBL document CHEMBL3407452, “Linear and branched alkyl-esters and amides of gallic acid and other (mono-, di- and tri-) hydroxy benzoyl derivatives as promising anti-HCV inhibitors” (Eur J Med Chem, 2015)
Activity calls are given as the source filed them. The rule behind the calls is not given here.

How the values were obtained:
[1] = test system: Human immunodeficiency virus 1; assay: Antiviral activity against HIV1 3B infected in human CEM cells assessed as reduction in virus-induced cytopathicity after 4 to 5 days by microscopy based syncytium cell formation assay; assay type: functional, organism-based, CCRF-CEM; conditions: Human immunodeficiency virus 1, 3B, CCRF-CEM; read-out: EC50
[2] = test system: Human immunodeficiency virus 2; assay: Antiviral activity against HIV2 ROD infected in human CEM cells assessed as reduction in virus-induced cytopathicity after 4 to 5 days by microscopy based syncytium cell formation assay; assay type: functional, organism-based, ISOLATE ROD, CCRF-CEM; conditions: Human immunodeficiency virus 2, ISOLATE ROD, CCRF-CEM; read-out: EC50
[3] = Cytotoxicity against human CEM cells assessed as inhibition of cell proliferation; assay type: cell-based; conditions: CEM cells (CCRF-CEM)
Hepatitis C virus [4] = assay: Antiviral activity against HCV genotype 1b I389luc-ubi-neo/NS3-3'/5.1 replicons infected in human Huh5-2 HCV subgenomic replicon-containing cells assessed as reduction in virus replication after 3 days by luciferase reporter gene assay; assay type: functional, Hepacivirus hominis; conditions: Hepatitis C virus, genotype 1b, Huh-5-2, 72 h; for EC50: read-out: EC50
[5] = Cytotoxicity against human Huh5-2 cells after 72 hrs by MTS assay; assay type: cell-based, Huh-5-2
[6] = Selectivity index, ratio of CC50 for human Huh5-2 cells to EC50 for HCV genotype 1b; parameters: species or system Huh-5-2
Vaccinia virus = assay: Antiviral activity against vaccinia virus; assay type: functional, organism-based; conditions: Orthopoxvirus vaccinia
[7] = test system: Vesicular stomatitis virus; assay: Antiviral activity against vesicular stomatitis virus; assay type: functional, organism-based
Coxsackievirus B4 = assay: Antiviral activity against human coxsackievirus B4; assay type: functional, organism-based
[8] = test system: Respiratory syncytial virus; assay: Antiviral activity against RSV; assay type: functional, organism-based
Human respirovirus 3 = assay: Antiviral activity against human parainfluenza virus 3; assay type: functional, organism-based
Reovirus sp. = assay: Antiviral activity against reovirus; assay type: functional, organism-based
Sindbis virus = assay: Antiviral activity against sindbis virus; assay type: functional, organism-based
Influenza A virus H3N2 = assay: Antiviral activity against influenza A virus H3N2; assay type: functional, organism-based
Influenza A virus = assay: Antiviral activity against influenza A virus (H1N1); assay type: functional, organism-based
Punta Toro virus = assay: Antiviral activity against punta toro virus; assay type: functional, organism-based
Feline coronavirus = assay: Antiviral activity against feline coronavirus; assay type: functional, organism-based
Felid alphaherpesvirus 1 = assay: Antiviral activity against feline herpesvirus; assay type: functional, organism-based
Chikungunya virus = assay: Antiviral activity against chikungunya virus; assay type: functional
Hepatitis C virus [9] = assay: Antiviral activity against HCV genotype 1b I389luc-ubi-neo/NS3-3'/5.1 replicons infected in human Huh-9-13 HCV subgenomic replicon-containing cells assessed as reduction in virus replication after 3 days by RT-qPCR method; assay type: functional, Hepacivirus hominis; conditions: 72 h
Hepatitis C virus [10] = assay: Antiviral activity against HCV genotype 1b I389luc-ubi-neo/NS3-3'/5.1 replicons infected in human HuH6 HCV subgenomic replicon-containing cells assessed as reduction in virus replication after 3 days by RT-qPCR method; assay type: functional, Hepacivirus hominis; conditions: HuH-6, 72 h
[11] = Cytotoxicity against human Huh-9-13 cells after 72 hrs by MTS assay; assay type: cell-based
[12] = Cytotoxicity against human HuH6 cells after 72 hrs by MTS assay; assay type: cell-based
[13] = Cytotoxicity against human Huh-9-13 cells assessed as reduction in cell number at 33 uM to 100 uM after 3 days by nile red staining based confocal microscopy; conditions: 72 h
[14] = Cytotoxicity against human Huh-9-13 cells assessed as alteration in cell morphology at 33 uM to 100 uM after 3 days by nile red staining based confocal microscopy; conditions: 72 h
[15] = Induction of phospholipidosis in human Huh-9-13 cells assessed as increase in charged lipid content at 33 uM to 100 uM after 3 days by nile red staining based confocal microscopy; assay type: cell-based; conditions: 72 h
[16] = Cytotoxicity against human Huh-9-13 cells assessed as reduction in cell number at 1 uM to 11 uM after 3 days by nile red staining based confocal microscopy; conditions: 72 h
[17] = Cytotoxicity against human Huh-9-13 cells assessed as alteration in cell morphology at 1 uM to 11 uM after 3 days by nile red staining based confocal microscopy; conditions: 72 h
[18] = Induction of phospholipidosis in human Huh-9-13 cells assessed as increase in charged lipid content at 1 uM to 11 uM after 3 days by nile red staining based confocal microscopy; assay type: cell-based; conditions: 72 h

Row | SMILES | EC50 [1] [µM] | EC50 [2] [µM] | CC50 [3] [µM] | EC90 (Hepatitis C virus [4]) [µM] | EC50 (Hepatitis C virus [4]) [µM] | CC50 at 72 h [5] [µM] | Ratio CC50/EC50 [6] | Activity (Vaccinia virus) | Activity [7] | Activity (Coxsackievirus B4) | Activity [8] | Activity (Human respirovirus 3) | Activity (Reovirus sp.) | Activity (Sindbis virus) | Activity (Influenza A virus H3N2) | Activity (Influenza A virus) | Activity (Punta Toro virus) | Activity (Feline coronavirus) | Activity (Felid alphaherpesvirus 1) | Activity (Chikungunya virus) | also measured
1 | O=C(OCCCCCCCCCCCCOC(=O)c1cc(O)c(O)c(O)c1)c1cc(O)c(O)c(O)c1 | 4.6 | > 10 | 4.7 | 37 | 6.5 | > 50 | >7 | inactive | inactive | inactive | inactive | inactive | inactive | inactive | inactive | inactive | inactive | inactive | inactive | inactive | –
2 | O=C(NCCCCCCCCCCCCNC(=O)c1ccc(O)c(O)c1O)c1ccc(O)c(O)c1O | > 10 | > 10 | 55 | 6.1 | 2.5 | > 100 | >40 | inactive | inactive | inactive | inactive | inactive | inactive | inactive | inactive | inactive | inactive | inactive | inactive | inactive | EC50 (Hepatitis C virus [9]): 8.4 µM; EC50 (Hepatitis C virus [10]): 33 µM; CC50 at 72 h [11]: > 100 µM; CC50 at 72 h [12]: > 100 µM; Activity [13]: Toxic; Activity [14]: Toxic; Activity [15]: Toxic; Activity [16]: Non-toxic; Activity [17]: Non-toxic; Activity [18]: Non-toxic
